This is an account of results in patent US20090042289A1, “Preservation of Cells” (University of Wales, Cardiff, priority 2000, published 2009).

The nature of series [1]: in vitro. The settings on record: rat.
Text: (§1) Data is expressed as a percentage of the number of viable cells (as determined by LDH activity) in the non-hydrolysed gelatin sandwich at each time point. Native Gel/cell slurry (-{acute over (◯)}-) wherein hepatocytes suspended in a gel of non-hydrolysed gelatin; Pre-adhered hepatocytes with Native gel blanket (-▪-) wherein hepatocytes allowed to adhere to the substratum before being blanketed by gel of non-hydrolysed gelatin; hydrolysed gelatin slurry (-x-) wherein hepatocytes suspended in a gel of non-hydrolysed gelatin hydrolysed at 95° C.; 75 bloom slurry (--) wherein hepatocytes suspended in a gel composed of 75 bloom gelatin (commercially available from Sigma); Pre-attached hepatocytes with Hydrolysed gel blanket (-◯-) wherein hepatocytes allowed to adhere to the substratum before being blanketed by a gel of hydrolysed gelatin.
The test system of series [2] is hepatocytes.
Text: as §1

Usually viability stands for a per cent measure of how many cells are alive, often set against a control. Read a low viability as a greater loss of cells. With `OCC(O)CO` [glycerol], in series [1], the viability at 7 days, 0.5 M stood at 10%. The “cytotoxicity to hepatocytes during preservation” value in series [2] is given as “cytotoxic”.
